Measurements published in paper PMC12326382, “Discovery of a novel RSK2 inhibitor for the treatment of metastatic pancreatic cancer” (Journal of Enzyme Inhibition and Medicinal Chemistry, 2025).

Target: T1, RSK2 (Homo sapiens, UniProt P51812)
T1 construct: gene RPS6KA3
Assay: FRET kinase assay (Thermo Fisher LanthaScreen / Z'-LYTE)
Format: biochemical

T1 sequence (P51812 whole entry): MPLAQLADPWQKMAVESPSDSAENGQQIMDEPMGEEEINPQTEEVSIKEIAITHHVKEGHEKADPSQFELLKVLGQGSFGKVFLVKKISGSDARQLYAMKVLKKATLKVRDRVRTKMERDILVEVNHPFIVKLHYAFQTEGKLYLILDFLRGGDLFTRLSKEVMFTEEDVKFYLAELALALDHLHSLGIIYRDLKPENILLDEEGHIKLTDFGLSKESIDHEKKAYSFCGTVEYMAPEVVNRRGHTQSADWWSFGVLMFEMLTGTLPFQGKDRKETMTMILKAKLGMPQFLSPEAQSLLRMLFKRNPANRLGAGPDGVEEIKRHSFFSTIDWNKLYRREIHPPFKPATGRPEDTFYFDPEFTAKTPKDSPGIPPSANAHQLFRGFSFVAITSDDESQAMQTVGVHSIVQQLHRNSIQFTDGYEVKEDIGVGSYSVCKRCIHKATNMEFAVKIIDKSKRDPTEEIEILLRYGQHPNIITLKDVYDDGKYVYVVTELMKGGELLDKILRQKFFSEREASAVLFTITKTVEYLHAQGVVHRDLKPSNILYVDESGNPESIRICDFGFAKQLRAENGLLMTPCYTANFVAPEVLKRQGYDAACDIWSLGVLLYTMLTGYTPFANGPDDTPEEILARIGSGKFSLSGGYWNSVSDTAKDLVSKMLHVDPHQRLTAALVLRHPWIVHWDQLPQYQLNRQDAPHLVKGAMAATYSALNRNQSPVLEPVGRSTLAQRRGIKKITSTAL

Cc1ccc2[nH]c(=O)c(-c3cnc(=O)[nH]n3)c(O)c2c1 [NSYSU-115]
IC50: 45.5 nM
